In ChEMBL document CHEMBL1140103, “Synthesis and evaluation of [N-methyl-11C]N-desmethyl-loperamide as a new and improved PET radiotracer for imaging P-gp function” (J Med Chem, 2008) one finds logD, pKa and Ki data, which are given here for 2 compounds.

A short description of data set [1]: Lipophilicity, log D of the compound. In kind it is physicochemical. The following applies: octanol/water.
The nature of data set [2]: Dissociation constant, pKa of the compound. The format is physicochemical.
The next data set deals with T1, D(4) dopamine receptor (Homo sapiens, UniProt P21917).
T1 sequence (P21917 whole entry): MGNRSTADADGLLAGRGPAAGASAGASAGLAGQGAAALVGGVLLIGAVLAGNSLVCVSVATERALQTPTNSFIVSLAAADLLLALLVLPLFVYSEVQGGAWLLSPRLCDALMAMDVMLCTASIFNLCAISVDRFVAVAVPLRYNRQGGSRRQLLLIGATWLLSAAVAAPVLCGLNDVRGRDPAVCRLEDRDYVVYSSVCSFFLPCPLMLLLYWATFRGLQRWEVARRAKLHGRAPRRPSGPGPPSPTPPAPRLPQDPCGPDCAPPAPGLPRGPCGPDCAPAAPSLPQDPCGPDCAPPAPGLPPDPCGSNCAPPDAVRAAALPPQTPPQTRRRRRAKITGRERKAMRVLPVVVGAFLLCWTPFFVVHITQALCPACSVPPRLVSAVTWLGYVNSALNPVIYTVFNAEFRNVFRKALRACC
Kind of data set: Displacement of [3H]N-methylspiperone from dopamine D4 receptor.

Another data set addresses Histamine H2 receptor (Homo sapiens, UniProt P25021). Put plainly: Displacement of [3H]tiotidine from human histamine H2 receptor.
For data set [3], the target named is T2, Alpha-2C adrenergic receptor (Homo sapiens, UniProt P18825).
T2 sequence (P18825 whole entry): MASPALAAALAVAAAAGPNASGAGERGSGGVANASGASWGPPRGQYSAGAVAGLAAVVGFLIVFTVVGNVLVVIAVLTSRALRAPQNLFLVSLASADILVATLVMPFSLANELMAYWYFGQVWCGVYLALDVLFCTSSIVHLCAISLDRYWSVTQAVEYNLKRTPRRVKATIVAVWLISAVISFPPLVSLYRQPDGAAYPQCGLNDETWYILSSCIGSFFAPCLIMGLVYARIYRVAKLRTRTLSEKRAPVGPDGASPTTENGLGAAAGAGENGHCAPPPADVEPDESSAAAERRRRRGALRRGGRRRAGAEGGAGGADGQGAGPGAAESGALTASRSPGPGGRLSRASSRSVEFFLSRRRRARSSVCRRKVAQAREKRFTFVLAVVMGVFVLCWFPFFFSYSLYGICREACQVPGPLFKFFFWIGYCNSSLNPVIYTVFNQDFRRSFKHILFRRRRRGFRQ
Kind of data set: Displacement of [125I]HEAT from adrenergic Alpha-2C receptor. Background: Loss of bound radioactivity is the signal in a displacement assay; it reports binding, not function.

Another data set addresses Histamine H3 receptor (Homo sapiens, UniProt Q9Y5N1). Kind of data set: Displacement of [3H]alpha-methylhistamine from human histamine H3 receptor.
A further data set has as its target Histamine H1 receptor (Homo sapiens, UniProt P35367). Kind of data set: Displacement of [3H]pyrilamine from human histamine H1 receptor.
The target in data set [4] is T3, Alpha-2B adrenergic receptor (Homo sapiens, UniProt P18089).
T3 sequence (P18089 whole entry): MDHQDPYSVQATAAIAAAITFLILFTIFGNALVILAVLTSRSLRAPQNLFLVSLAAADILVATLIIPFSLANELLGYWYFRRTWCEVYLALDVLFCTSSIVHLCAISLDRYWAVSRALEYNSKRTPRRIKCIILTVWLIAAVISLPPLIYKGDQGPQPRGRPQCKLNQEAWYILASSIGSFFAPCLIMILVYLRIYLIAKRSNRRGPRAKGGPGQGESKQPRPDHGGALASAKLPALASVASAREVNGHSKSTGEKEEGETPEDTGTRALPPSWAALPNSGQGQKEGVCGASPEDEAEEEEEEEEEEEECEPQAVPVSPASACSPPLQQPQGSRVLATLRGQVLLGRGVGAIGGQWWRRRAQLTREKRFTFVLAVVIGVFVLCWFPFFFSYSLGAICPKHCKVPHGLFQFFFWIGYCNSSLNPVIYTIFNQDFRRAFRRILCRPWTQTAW
Kind of data set: Displacement of [125I]HEAT from adrenergic alpha2B receptor.

The target of data set [5] is T4, Alpha-2A adrenergic receptor (Homo sapiens, UniProt P08913).
T4 sequence (P08913 whole entry): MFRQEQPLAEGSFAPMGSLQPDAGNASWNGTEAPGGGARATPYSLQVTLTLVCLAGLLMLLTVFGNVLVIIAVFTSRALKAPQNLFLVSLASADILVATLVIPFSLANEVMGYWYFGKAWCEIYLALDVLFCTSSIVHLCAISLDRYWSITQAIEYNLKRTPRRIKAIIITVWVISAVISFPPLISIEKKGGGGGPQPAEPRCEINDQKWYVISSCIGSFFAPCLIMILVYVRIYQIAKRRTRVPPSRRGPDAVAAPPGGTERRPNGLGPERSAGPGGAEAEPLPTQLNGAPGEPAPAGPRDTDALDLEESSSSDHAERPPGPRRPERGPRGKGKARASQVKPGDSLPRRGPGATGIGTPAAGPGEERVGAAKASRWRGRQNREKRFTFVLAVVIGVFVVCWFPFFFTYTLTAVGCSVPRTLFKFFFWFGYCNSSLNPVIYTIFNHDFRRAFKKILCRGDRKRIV
Kind of data set: Displacement of [125I]HEAT from adrenergic alpha2A receptor.

Data set [6] has as its target Sigma non-opioid intracellular receptor 1 (Rattus norvegicus, UniProt Q9R0C9). Put plainly: Displacement of [3H]Pentazocine from rat sigma 1 receptor in rat PC12 cells. In kind it is cell-based, PC-12.
Another data set addresses Mu-type opioid receptor (Homo sapiens, UniProt P35372). Kind of data set: Displacement of [3H]DAMGO from mu opioid receptor.
The target in data set [7] is T5, Alpha-1A adrenergic receptor (Homo sapiens, UniProt P35348).
T5 sequence (P35348 whole entry): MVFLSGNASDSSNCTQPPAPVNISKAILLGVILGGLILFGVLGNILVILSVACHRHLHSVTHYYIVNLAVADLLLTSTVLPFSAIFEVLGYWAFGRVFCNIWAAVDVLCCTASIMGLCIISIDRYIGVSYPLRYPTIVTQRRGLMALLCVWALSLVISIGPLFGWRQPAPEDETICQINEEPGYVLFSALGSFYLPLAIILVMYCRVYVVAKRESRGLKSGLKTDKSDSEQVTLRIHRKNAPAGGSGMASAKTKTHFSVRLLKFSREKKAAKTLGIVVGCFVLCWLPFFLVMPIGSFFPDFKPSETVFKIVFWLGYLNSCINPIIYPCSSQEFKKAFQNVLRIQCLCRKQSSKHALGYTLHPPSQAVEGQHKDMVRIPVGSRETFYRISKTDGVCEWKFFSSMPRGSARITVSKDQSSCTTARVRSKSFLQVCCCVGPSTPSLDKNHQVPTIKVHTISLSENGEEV
Kind of data set: Displacement of [125I]HEAT from adrenergic alpha1A receptor.

Data set [8] can be described thus: Displacement of [3H]DTG from rat sigma 2 receptor in rat PC12 cells. In kind it is cell-based. The following applies: pc-12.
Data set [9] has as its target Sodium-dependent serotonin transporter (Homo sapiens, UniProt P31645). Put plainly: Displacement of [3H]citalopram from human SERT.

Sequence of Histamine H2 receptor (P25021 whole entry): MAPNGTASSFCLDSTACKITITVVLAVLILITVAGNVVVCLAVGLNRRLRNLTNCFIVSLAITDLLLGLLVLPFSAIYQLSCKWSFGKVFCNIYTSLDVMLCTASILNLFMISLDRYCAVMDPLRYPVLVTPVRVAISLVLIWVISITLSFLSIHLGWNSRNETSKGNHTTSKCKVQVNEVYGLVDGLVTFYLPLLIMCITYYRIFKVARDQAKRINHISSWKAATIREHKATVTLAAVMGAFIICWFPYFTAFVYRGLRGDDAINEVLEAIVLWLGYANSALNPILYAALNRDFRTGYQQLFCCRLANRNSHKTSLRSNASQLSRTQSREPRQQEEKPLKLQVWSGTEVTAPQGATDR
Sequence of Histamine H3 receptor (Q9Y5N1 whole entry): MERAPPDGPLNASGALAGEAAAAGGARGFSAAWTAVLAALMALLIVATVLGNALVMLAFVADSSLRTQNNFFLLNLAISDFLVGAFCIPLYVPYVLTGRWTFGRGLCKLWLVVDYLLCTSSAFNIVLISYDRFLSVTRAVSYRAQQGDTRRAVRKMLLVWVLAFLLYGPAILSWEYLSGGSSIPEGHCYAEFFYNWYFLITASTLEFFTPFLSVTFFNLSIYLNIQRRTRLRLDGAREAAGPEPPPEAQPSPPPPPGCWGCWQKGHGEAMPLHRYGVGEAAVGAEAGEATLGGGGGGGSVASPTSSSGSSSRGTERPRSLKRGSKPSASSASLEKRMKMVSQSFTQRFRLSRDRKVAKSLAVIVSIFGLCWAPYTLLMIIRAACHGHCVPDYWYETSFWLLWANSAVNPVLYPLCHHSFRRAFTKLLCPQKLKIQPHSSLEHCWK
Sequence of Sodium-dependent serotonin transporter (P31645 whole entry): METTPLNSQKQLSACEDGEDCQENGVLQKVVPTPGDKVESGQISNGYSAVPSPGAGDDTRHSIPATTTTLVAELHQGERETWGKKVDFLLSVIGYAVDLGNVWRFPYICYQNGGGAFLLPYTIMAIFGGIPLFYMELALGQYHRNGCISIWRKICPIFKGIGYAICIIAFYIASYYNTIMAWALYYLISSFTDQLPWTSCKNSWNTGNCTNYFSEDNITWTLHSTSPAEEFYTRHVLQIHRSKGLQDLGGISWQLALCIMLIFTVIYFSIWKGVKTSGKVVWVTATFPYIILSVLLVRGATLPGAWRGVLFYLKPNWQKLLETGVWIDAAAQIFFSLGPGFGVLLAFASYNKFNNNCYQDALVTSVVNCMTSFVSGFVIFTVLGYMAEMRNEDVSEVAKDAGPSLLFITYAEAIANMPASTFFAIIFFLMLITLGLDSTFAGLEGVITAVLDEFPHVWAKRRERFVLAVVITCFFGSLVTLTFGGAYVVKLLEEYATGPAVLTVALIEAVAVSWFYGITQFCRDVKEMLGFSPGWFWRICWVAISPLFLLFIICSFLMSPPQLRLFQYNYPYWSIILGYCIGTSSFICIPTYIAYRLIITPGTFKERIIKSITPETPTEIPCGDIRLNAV
Sequence of Histamine H1 receptor (P35367 whole entry): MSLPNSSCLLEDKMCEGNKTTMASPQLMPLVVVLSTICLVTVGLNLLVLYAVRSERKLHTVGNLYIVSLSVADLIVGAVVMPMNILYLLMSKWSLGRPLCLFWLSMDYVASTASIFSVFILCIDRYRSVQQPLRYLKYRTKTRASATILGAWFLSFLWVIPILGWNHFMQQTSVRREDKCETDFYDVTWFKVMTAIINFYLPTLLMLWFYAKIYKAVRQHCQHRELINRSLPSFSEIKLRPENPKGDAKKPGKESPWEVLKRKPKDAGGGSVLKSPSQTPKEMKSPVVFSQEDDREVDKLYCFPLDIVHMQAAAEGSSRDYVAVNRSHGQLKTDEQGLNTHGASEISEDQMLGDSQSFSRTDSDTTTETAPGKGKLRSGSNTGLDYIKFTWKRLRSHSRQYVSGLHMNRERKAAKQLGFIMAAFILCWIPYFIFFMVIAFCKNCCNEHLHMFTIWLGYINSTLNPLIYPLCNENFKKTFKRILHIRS
Sequence of Sigma non-opioid intracellular receptor 1 (Q9R0C9 whole entry): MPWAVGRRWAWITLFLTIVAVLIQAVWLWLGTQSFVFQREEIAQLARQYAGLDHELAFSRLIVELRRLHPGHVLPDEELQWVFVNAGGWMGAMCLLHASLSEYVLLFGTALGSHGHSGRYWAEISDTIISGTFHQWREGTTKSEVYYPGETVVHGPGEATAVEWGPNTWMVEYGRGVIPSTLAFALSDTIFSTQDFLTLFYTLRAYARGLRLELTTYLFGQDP
Sequence of Mu-type opioid receptor (P35372 whole entry): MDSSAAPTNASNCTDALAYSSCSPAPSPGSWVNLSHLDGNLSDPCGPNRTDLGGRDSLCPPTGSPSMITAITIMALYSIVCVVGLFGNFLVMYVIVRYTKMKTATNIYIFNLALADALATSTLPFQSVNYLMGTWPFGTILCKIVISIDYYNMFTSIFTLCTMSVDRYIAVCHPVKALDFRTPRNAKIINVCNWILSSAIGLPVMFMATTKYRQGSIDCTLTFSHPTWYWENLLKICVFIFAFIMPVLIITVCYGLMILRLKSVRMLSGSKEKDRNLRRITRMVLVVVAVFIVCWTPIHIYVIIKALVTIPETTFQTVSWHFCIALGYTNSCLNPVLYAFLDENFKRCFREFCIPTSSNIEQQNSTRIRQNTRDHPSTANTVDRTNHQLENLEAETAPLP

By logD is commonly meant the decadic logarithm of the distribution of all forms, ionised or not, between an organic phase and buffer at a given pH. A lower logD goes with lower lipophilicity. The term pKa denotes the pH at which an ionisable group is half protonated. Take `[11CH3]NC(=O)C(CCN1CCC(O)(c2ccc(Cl)cc2)CC1)(c1ccccc1)c1ccccc1`: the pH-dependent lipophilicity (logD) in [1] came out at 2.6. Also, the pKa in data set [2] (read-out: pKa) worked out at 7.96.

What is called Ki is the dissociation constant of the complex between target and ligand, obtained from inhibition or displacement. Higher therefore signals lower affinity. On to `CNC(=O)C(CCN1CCC(O)(c2ccc(Cl)cc2)CC1)(c1ccccc1)c1ccccc1`, for which the Ki on D(4) dopamine receptor turned out to be 1.1 nM; at Histamine H2 receptor it was 1.7 nM; in data set [3], 2.4 nM; at Histamine H3 receptor, 9.3 nM; on Histamine H1 receptor, 4.2 nM; in [4] it was 7 nM. Also, the Ki in data set [5] came out at 1 nM; in [6], 0.8 nM; at Mu-type opioid receptor, 0.6 nM; in [7], 9.9 nM; in data set [8], 1.9 nM; in data set [9] it was 6.2 nM. In data set [2], the pKa is on record as 7.2.
